# In patent US10654875B2, “Cell-penetrating, guanidinium-rich oligophosphotriesters for drug and probe delivery” (The Board of Trustees of the Leland Stanford Junior …, priority 2015, dated 2020):
# How the values were obtained:
# HeLa cells [1] = settings: without attachment to a transporter, previously shown; cited from earlier work
# HeLa cells [2] = test: Uptake of maleimide conjugates by flow cytometry; settings: 10 μM, 10 minutes
# Procedure: (FIG. 4A) Delivery of FL-maleimide to HeLa cells by click-coupling to thiol-initiated HexPhos oligomer 8. Maleimide control and HexPhos8 conjugate (11 and 12 respectively) were formed by reaction of 10 with the corresponding thiol for 2 hours at room temperature in PBS. The resulting compounds were exposed to HeLa cells at 10 μM final concentration for 10 minutes before determining uptake by flow cytometry. Data shown is the average fluorescence of 10,000 events measured.
# To explore this strategy, deprotected thiol-initiated HexPhos 8-mer (7) was mixed with fluorescein (FL) maleimide (10) in PBS at room temperature for 2 hours to effect a Michael addition and uptake of the resulting conjugate was determined by flow cytometry (FIG. 4, panel A).
# HeLa cells were plated at 40,000 cells/well in 24-well plates and incubated at 37° C. for 12-24 hours to adhere. Before treatment, a 1:1 molar ratio of thiol-initiated HexPhos oligomer (7) and FL-maleimide (10, Molecular Probes) was incubated for 2 hours in PBS (pH 7.4) at a final concentration of 4 mM. […] After removal of the supernatant, cells were resuspended in 125 μL of PBS and transferred to FACS tubes and read on a flow cytometry analyzer for the presence of fluorescein. Results were analyzed by FlowJo software. Data presented is the mean fluorescence from 10,000 cells analyzed.
# [3] = test system: OVCA-429 (wild-type) ovarian cancer cells; test: MTT toxicity assay of PTX and PTX-HexPhos conjugate; format: cell-based, human; settings: wash, 72 hours drug-free media, concentrations based on paclitaxel content
# Procedure: OVCA-429 (wild-type) and OVCA-429T (resistant) cells were treated with free PTX (14) or the HexPhos conjugate 16 for 20 minutes in PBS, then washed and incubated for 3 days. After this time, cellular viability was assessed using a standard MTT assay to generate an EC50 value (the concentration at which overall cellular viability was half that of untreated cells) for each condition. […] The efficacy of these compounds can be expressed in terms of a “resistance factor” for free PTX and the HexPhos-paclitaxel conjugate 16, defined as the EC50 in resistant cells/the EC50 in wild-type cells.
# MTT Toxicity Assays. The cytotoxicity of HexPhos oligomers, PTX alone, and PTX-HexPhos conjugate (16) were assessed by a standard MTT percent viability assay. Adherent cells (HeLa for oligomers alone, OVCA-429 or OVCA-429T for PTX and PTX-HexPhos conjugate) were plated at 5,000 cells/well in 96 well plates and allowed to incubate at 37° C. for 12-24 hours to adhere. Cells were washed with serum-free DMEM prior to treatment. In a second 96-well plate, compounds were serially diluted over a range of 200 μM to 400 nM, with two-fold dilutions between each well. […] Read absorbance on a plate reader at 570 and 690 nm. Subtracted absorbance at 570 from absorbance at 690 and normalized to wells with no cells as a minimum, and untreated cells as a maximum to calculate % viability.
# [4] = test system: OVCA-429T (resistant) ovarian cancer cells; test: as above; format: cell-based, human; settings: for Resistance Factor: ratio of EC50 in OVCA-429T and OVCA-429 cells
# Procedure: The in vitro efficacy of PTX-HexPhos conjugate 16 was compared to free PTX in both wild-type and PTX-resistant ovarian cancer cells engineered to have high levels of Pgp up-regulation. OVCA-429 (wild-type) and OVCA-429T (resistant) cells were treated with free PTX (14) or the HexPhos conjugate 16 for 20 minutes in PBS, then washed and incubated for 3 days. After this time, cellular viability was assessed using a standard MTT assay to generate an EC50 value (the concentration at which overall cellular viability was half that of untreated cells) for each condition. […] The efficacy of these compounds can be expressed in terms of a “resistance factor” for free PTX and the HexPhos-paclitaxel conjugate 16, defined as the EC50 in resistant cells/the EC50 in wild-type cells.
# MTT Toxicity Assays. The cytotoxicity of HexPhos oligomers, PTX alone, and PTX-HexPhos conjugate (16) were assessed by a standard MTT percent viability assay. Adherent cells (HeLa for oligomers alone, OVCA-429 or OVCA-429T for PTX and PTX-HexPhos conjugate) were plated at 5,000 cells/well in 96 well plates and allowed to incubate at 37° C. for 12-24 hours to adhere. Cells were washed with serum-free DMEM prior to treatment. In a second 96-well plate, compounds were serially diluted over a range of 200 μM to 400 nM, with two-fold dilutions between each well. For PTX conditions, a range of 20 μM to 40 nM was used. Each compound was tested in triplicate. […] Second plate was transferred to the plate containing cells, and incubated at 37° C. for 10 minutes, followed washing and replacement with 150 μL fresh serum-containing DMEM. Cells were incubated for an additional 72 hours at 37° C., after which time cellular viability was assayed by adding μ10 L of 3-(4,5-dimethylthiazol-2-yl)-2,5-diphenyltetrazolium bromide (MTT) solution (15 mg in 3 mL DMEM). Incubated for 2 hours at 37° C. […] Read absorbance on a plate reader at 570 and 690 nm. Subtracted absorbance at 570 from absorbance at 690 and normalized to wells with no cells as a minimum, and untreated cells as a maximum to calculate % viability.
compound,measurement,setting,value
"CN(C)c1cccc2c(S(=O)(=O)NCCO)cccc12 [Compound 4, 5-(dimethylamino)-N-(2-hydroxyethyl)naphthalene-1-sulfonamide]",cell entry of probe alone,HeLa cells [1],not to enter cells
"O=C1OC2(c3ccc(O)cc3Oc3cc(O)ccc32)c2ccc(N3C(=O)C=CC3=O)cc21 [Compound 10, fluorescein (FL) maleimide]",FL fluorescence of cells treated with controls,HeLa cells [2],little FL fluorescence
"CC(=O)O[C@H]1C(=O)[C@@]2(C)[C@H]([C@H](OC(=O)c3ccccc3)[C@]3(O)C[C@H](OC(=O)[C@H](O)[C@@H](NC(=O)c4ccccc4)c4ccccc4)C(C)=C1C3(C)C)[C@]1(OC(C)=O)CO[C@@H]1C[C@@H]2O [PTX Alone (14), paclitaxel]",EC50,"[3]; Homo sapiens, OVCA429, treated 20 minutes",0.051 ± 0.037 µM
same,EC50 (μM) OVCA-429 (Wild-type),[3]; treated 20 minutes,highly cytotoxic
same,EC50,"[4]; Homo sapiens, treated 20 minutes, wash, 72 hours drug-free media, MTT, assay limit 20 μM",> 20 µM
same,Resistance Factor,[4],>400
same,Resistance Factor,[4]; listed as 14,≥ 400
